From the NIST ThermoML archive (doi:10.1016/j.jct.2018.08.005)
± gives the expanded uncertainty stated by the source.

Test: xn = mol fraction of the nth substance listed
Conditions: Liquid; for mass density: Vibrating tube method; for speed of sound: Frequency=3 MHz, Pulse-echo method
[1] = 303.15 K, 40000 kPa, x1 = 0.375
[2] = 303.15 K, 40000 kPa, x1 = 0.625
[3] = 303.15 K, 60000 kPa, x1 = 0.375
[4] = 303.15 K, 60000 kPa, x1 = 0.625
[5] = 303.15 K, 80000 kPa, x1 = 0.375
[6] = 303.15 K, 100000 kPa, x1 = 0.25
[7] = 303.15 K, 100000 kPa, x1 = 0.375
[8] = 303.15 K, 100000 kPa, x1 = 0.625
[9] = 303.15 K, 100000 kPa, x1 = 0.75
[10] = 313.15 K, 20000 kPa, x1 = 0.375
[11] = 313.15 K, 20000 kPa, x1 = 0.625
[12] = 313.15 K, 40000 kPa, x1 = 0.375
[13] = 313.15 K, 40000 kPa, x1 = 0.625

## CCOC(F)(C(F)(F)C(F)(F)C(F)(F)F)C(F)(C(F)(F)F)C(F)(F)F (stereo not given) [2-trifluoromethyl-3-ethoxydodecafluorohexane] + CC(C)OC(C)C
303.15 K, 20000 kPa, x1 = 0.375
  mass density: 1201.2 ± 0.8 kg/m3
303.15 K, 20000 kPa, x1 = 0.5
  mass density: 1314.1 ± 0.8 kg/m3
303.15 K, 20000 kPa, x1 = 0.625
  mass density: 1417.3 ± 0.9 kg/m3
303.15 K, 20000 kPa, x1 = 0.75
  mass density: 1505.1 ± 1 kg/m3
303.15 K, 30000 kPa, x1 = 0.25
  mass density: 1087.7 ± 0.8 kg/m3
303.15 K, 30000 kPa, x1 = 0.375
  mass density: 1217 ± 0.8 kg/m3
303.15 K, 30000 kPa, x1 = 0.5
  mass density: 1331.1 ± 0.9 kg/m3
303.15 K, 30000 kPa, x1 = 0.625
  mass density: 1435.3 ± 1 kg/m3
303.15 K, 30000 kPa, x1 = 0.75
  mass density: 1523.8 ± 1.1 kg/m3
303.15 K, 40000 kPa, x1 = 0.25
  speed of sound: 1001.7 ± 2.2 m/s
  mass density: 1100.3 ± 0.8 kg/m3
[1]
  speed of sound: 948.6 ± 2.2 m/s
  mass density: 1231.1 ± 0.9 kg/m3
303.15 K, 40000 kPa, x1 = 0.5
  speed of sound: 909.1 ± 2.2 m/s
  mass density: 1346.3 ± 1 kg/m3
[2]
  speed of sound: 889.5 ± 2.2 m/s
  mass density: 1451.3 ± 1.2 kg/m3
303.15 K, 40000 kPa, x1 = 0.75
  speed of sound: 864.7 ± 2.2 m/s
  mass density: 1540.4 ± 1.3 kg/m3
303.15 K, 50000 kPa, x1 = 0.25
  mass density: 1111.7 ± 0.8 kg/m3
303.15 K, 50000 kPa, x1 = 0.375
  mass density: 1243.8 ± 1 kg/m3
303.15 K, 50000 kPa, x1 = 0.5
  mass density: 1360 ± 1.1 kg/m3
303.15 K, 50000 kPa, x1 = 0.625
  mass density: 1465.8 ± 1.3 kg/m3
303.15 K, 50000 kPa, x1 = 0.75
  mass density: 1555.5 ± 1.5 kg/m3
303.15 K, 60000 kPa, x1 = 0.25
  speed of sound: 1089.1 ± 2.2 m/s
  mass density: 1122.1 ± 0.9 kg/m3
[3]
  speed of sound: 1032.1 ± 2.2 m/s
  mass density: 1255.4 ± 1 kg/m3
303.15 K, 60000 kPa, x1 = 0.5
  speed of sound: 989.8 ± 2.2 m/s
  mass density: 1372.6 ± 1.3 kg/m3
[4]
  speed of sound: 969.5 ± 2.2 m/s
  mass density: 1479.2 ± 1.5 kg/m3
303.15 K, 60000 kPa, x1 = 0.75
  speed of sound: 941.8 ± 2.2 m/s
  mass density: 1569.3 ± 1.8 kg/m3
303.15 K, 70000 kPa, x1 = 0.25
  mass density: 1131.8 ± 0.9 kg/m3
303.15 K, 70000 kPa, x1 = 0.375
  mass density: 1266.2 ± 1.1 kg/m3
303.15 K, 70000 kPa, x1 = 0.5
  mass density: 1384.2 ± 1.4 kg/m3
303.15 K, 70000 kPa, x1 = 0.625
  mass density: 1491.4 ± 1.7 kg/m3
303.15 K, 70000 kPa, x1 = 0.75
  mass density: 1582.1 ± 2 kg/m3
303.15 K, 80000 kPa, x1 = 0.25
  speed of sound: 1164.4 ± 2.2 m/s
  mass density: 1140.8 ± 0.9 kg/m3
[5]
  speed of sound: 1104 ± 2.2 m/s
  mass density: 1276.1 ± 1.2 kg/m3
303.15 K, 80000 kPa, x1 = 0.5
  speed of sound: 1059.8 ± 2.2 m/s
  mass density: 1395.1 ± 1.6 kg/m3
303.15 K, 80000 kPa, x1 = 0.75
  speed of sound: 1008.7 ± 2.2 m/s
  mass density: 1594 ± 2.3 kg/m3
303.15 K, 80000 kPa, x1 = 0.625
  mass density: 1502.8 ± 2 kg/m3
303.15 K, 90000 kPa, x1 = 0.25
  mass density: 1149.3 ± 1 kg/m3
303.15 K, 90000 kPa, x1 = 0.375
  mass density: 1285.5 ± 1.3 kg/m3
303.15 K, 90000 kPa, x1 = 0.5
  mass density: 1405.2 ± 1.8 kg/m3
303.15 K, 90000 kPa, x1 = 0.625
  mass density: 1513.6 ± 2.2 kg/m3
303.15 K, 90000 kPa, x1 = 0.75
  mass density: 1605.2 ± 2.5 kg/m3
[6]
  speed of sound: 1231.9 ± 2.2 m/s
  mass density: 1157.3 ± 1 kg/m3
[7]
  speed of sound: 1170.1 ± 2.2 m/s
  mass density: 1294.3 ± 1.5 kg/m3
303.15 K, 100000 kPa, x1 = 0.5
  speed of sound: 1123 ± 2.2 m/s
  mass density: 1414.8 ± 2 kg/m3
[8]
  speed of sound: 1101.7 ± 2.2 m/s
  mass density: 1523.7 ± 2.4 kg/m3
[9]
  speed of sound: 1068.1 ± 2.2 m/s
  mass density: 1615.8 ± 2.8 kg/m3
303.15 K, 110000 kPa, x1 = 0.25
  mass density: 1164.9 ± 1.1 kg/m3
303.15 K, 110000 kPa, x1 = 0.375
  mass density: 1302.8 ± 1.6 kg/m3
303.15 K, 110000 kPa, x1 = 0.5
  mass density: 1423.9 ± 2.2 kg/m3
303.15 K, 110000 kPa, x1 = 0.625
  mass density: 1533.3 ± 2.7 kg/m3
303.15 K, 110000 kPa, x1 = 0.75
  mass density: 1625.8 ± 3.1 kg/m3
303.15 K, 120000 kPa, x1 = 0.25
  mass density: 1172.1 ± 1.2 kg/m3
303.15 K, 120000 kPa, x1 = 0.375
  mass density: 1310.8 ± 1.8 kg/m3
303.15 K, 120000 kPa, x1 = 0.5
  mass density: 1432.6 ± 2.4 kg/m3
303.15 K, 120000 kPa, x1 = 0.625
  mass density: 1542.4 ± 2.9 kg/m3
303.15 K, 120000 kPa, x1 = 0.75
  mass density: 1635.3 ± 3.4 kg/m3
303.15 K, 130000 kPa, x1 = 0.25
  mass density: 1178.8 ± 1.2 kg/m3
303.15 K, 130000 kPa, x1 = 0.375
  mass density: 1318.4 ± 1.9 kg/m3
303.15 K, 130000 kPa, x1 = 0.5
  mass density: 1440.8 ± 2.6 kg/m3
303.15 K, 130000 kPa, x1 = 0.625
  mass density: 1551.2 ± 3.2 kg/m3
303.15 K, 130000 kPa, x1 = 0.75
  mass density: 1644.4 ± 3.7 kg/m3
303.15 K, 140000 kPa, x1 = 0.25
  mass density: 1185.4 ± 1.3 kg/m3
303.15 K, 140000 kPa, x1 = 0.375
  mass density: 1325.9 ± 2.1 kg/m3
303.15 K, 140000 kPa, x1 = 0.5
  mass density: 1448.7 ± 2.8 kg/m3
303.15 K, 140000 kPa, x1 = 0.625
  mass density: 1559.5 ± 3.4 kg/m3
303.15 K, 140000 kPa, x1 = 0.75
  mass density: 1653.1 ± 4 kg/m3
313.15 K, 100 kPa, x1 = 0.25
  speed of sound: 729.6 ± 2.2 m/s
  mass density: 1022.4 ± 0.8 kg/m3
313.15 K, 100 kPa, x1 = 0.5
  speed of sound: 656.3 ± 2.2 m/s
  mass density: 1253.4 ± 0.8 kg/m3
313.15 K, 100 kPa, x1 = 0.625
  speed of sound: 641.2 ± 2.2 m/s
  mass density: 1351.8 ± 0.8 kg/m3
313.15 K, 100 kPa, x1 = 0.75
  speed of sound: 626.5 ± 2.2 m/s
  mass density: 1438.4 ± 0.8 kg/m3
313.15 K, 100 kPa, x1 = 0.375
  mass density: 1144.5 ± 0.8 kg/m3
313.15 K, 10000 kPa, x1 = 0.25
  mass density: 1042.9 ± 0.8 kg/m3
313.15 K, 10000 kPa, x1 = 0.375
  mass density: 1167.7 ± 0.8 kg/m3
313.15 K, 10000 kPa, x1 = 0.5
  mass density: 1278.3 ± 0.8 kg/m3
313.15 K, 10000 kPa, x1 = 0.625
  mass density: 1378.1 ± 0.8 kg/m3
313.15 K, 10000 kPa, x1 = 0.75
  mass density: 1465.4 ± 0.8 kg/m3
313.15 K, 20000 kPa, x1 = 0.25
  speed of sound: 870.2 ± 2.2 m/s
  mass density: 1060.3 ± 0.8 kg/m3
[10]
  speed of sound: 821.7 ± 2.2 m/s
  mass density: 1187.2 ± 0.8 kg/m3
313.15 K, 20000 kPa, x1 = 0.5
  speed of sound: 786.8 ± 2.2 m/s
  mass density: 1299.2 ± 0.8 kg/m3
[11]
  speed of sound: 769.5 ± 2.2 m/s
  mass density: 1400.1 ± 0.9 kg/m3
313.15 K, 20000 kPa, x1 = 0.75
  speed of sound: 749.4 ± 2.2 m/s
  mass density: 1488.1 ± 1 kg/m3
313.15 K, 30000 kPa, x1 = 0.25
  mass density: 1075.3 ± 0.8 kg/m3
313.15 K, 30000 kPa, x1 = 0.375
  mass density: 1203.9 ± 0.8 kg/m3
313.15 K, 30000 kPa, x1 = 0.5
  mass density: 1317.2 ± 0.9 kg/m3
313.15 K, 30000 kPa, x1 = 0.625
  mass density: 1419.2 ± 1 kg/m3
313.15 K, 30000 kPa, x1 = 0.75
  mass density: 1507.8 ± 1.1 kg/m3
313.15 K, 40000 kPa, x1 = 0.25
  speed of sound: 975.8 ± 2.2 m/s
  mass density: 1088.5 ± 0.8 kg/m3
[12]
  speed of sound: 924.1 ± 2.2 m/s
  mass density: 1218.6 ± 0.9 kg/m3
313.15 K, 40000 kPa, x1 = 0.5
  speed of sound: 885.6 ± 2.2 m/s
  mass density: 1333.1 ± 1 kg/m3
[13]
  speed of sound: 866.8 ± 2.2 m/s
  mass density: 1436 ± 1.1 kg/m3
313.15 K, 40000 kPa, x1 = 0.75
  speed of sound: 843.3 ± 2.2 m/s
  mass density: 1525.3 ± 1.3 kg/m3
313.15 K, 50000 kPa, x1 = 0.25
  mass density: 1100.5 ± 0.8 kg/m3
313.15 K, 50000 kPa, x1 = 0.375
  mass density: 1232 ± 0.9 kg/m3
313.15 K, 50000 kPa, x1 = 0.5
  mass density: 1347.4 ± 1.1 kg/m3
